Data on 17 compounds can be found in ChEMBL document CHEMBL3352694, “Structure-activity relationships (SAR) and structure-kinetic relationships (SKR) of bicyclic heteroaromatic acetic acids as potent CRTh2 antagonists I” (Bioorg Med Chem Lett, 2014).

Bounds are passed on as bounds.

The target in data set [1] is T1, Prostaglandin D2 receptor 2 (Homo sapiens) (UniProt Q9Y5Y4).
T1 sequence (whole entry): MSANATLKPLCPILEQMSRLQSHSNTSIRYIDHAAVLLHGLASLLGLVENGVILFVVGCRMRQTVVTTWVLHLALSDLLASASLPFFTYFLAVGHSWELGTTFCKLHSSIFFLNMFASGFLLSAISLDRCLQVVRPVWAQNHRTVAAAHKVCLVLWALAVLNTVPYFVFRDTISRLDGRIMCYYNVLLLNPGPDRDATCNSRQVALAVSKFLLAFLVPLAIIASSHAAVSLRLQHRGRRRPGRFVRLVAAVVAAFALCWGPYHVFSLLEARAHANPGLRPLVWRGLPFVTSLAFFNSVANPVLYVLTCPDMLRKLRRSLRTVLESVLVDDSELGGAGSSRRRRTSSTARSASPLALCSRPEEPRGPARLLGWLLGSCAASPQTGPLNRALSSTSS
The conditions noted are these: CHO-K1.
Description: Binding affinity to CRTh2 receptor (unknown origin) overexpressed in CHOK1 cell membranes assessed as dissociation half life at 10 X IC50 preincubated for 1 hr followed [35S]-GTPgammaS addition measured after 2 hrs by liquid scintillation counting analysis

For data set [2], the target named is T2, Prostaglandin D2 receptor 2 (Homo sapiens, UniProt Q9Y5Y4).
T2 sequence (Q9Y5Y4 whole entry): T1 sequence (whole entry)
Briefly: Antagonist activity at CRTh2 receptor (unknown origin) overexpressed in CHOK1 cell membranes assessed as inhibition of [35S]-GTPgammaS binding at 1 to 5 uM preincubated for 1 hr followed by 50 nM PGD2 and 0.1 nM [35S]-GTPgammaS addition measured after 2 hrs by liquid scintillation counting analysis relative to control. Format: functional, CHO-K1. Background: Binding of GTPγS marks nucleotide exchange on a G protein.

Data set [3] can be described thus: Antagonist activity at CRTh2 receptor in human eosinophil assessed as inhibition of PGD2-induced cell shape change.
Data set [4] in a line: Thermodynamic solubility in pH 1.0 buffer after 24 hrs at 37 degC. The conditions noted are these: read-out: Therm_solubility. Format: physicochemical.
Data set [5] in a line: Dissociation constant, acidic pKa of the compound by potentiometric assay. Format: physicochemical.
A short description of data set [6]: Dissociation constant, basic pKa of the compound by potentiometric assay. Format: physicochemical.
The nature of data set [7]: Cmax in rat at 1 mg/kg. Particulars: in vivo. Also on record: dose 1 mg/kg. Format: ADME, organism-based.
Data set [8] is described as follows: Lipophilicity, log D of the compound at pH 7.4 by shake flask method. Format: physicochemical. The conditions noted are these: buffer.
Data set [9] in a line: Apparent permeability of the compound at 20 uM incubated at 20 degC for 5 hrs in 2% DMSO containing PBS buffer solution by PAMPA assay. Format: physicochemical. On the technique in general: The PAMPA barrier holds no transporters, so it reflects passive diffusion.
Data set [10] in a line: Clearance in rat at 1 mg/kg. Format: ADME, organism-based. Also on record: dose 1 mg/kg. Particulars: in vivo.
The nature of data set [11]: Thermodynamic solubility in pH 7.4 buffer after 24 hrs at 37 degC. Format: physicochemical. Particulars: read-out: Therm_solubility.
Data set [12] can be described thus: Mean residence time in rat at 1 mg/kg. Particulars: in vivo. Format: ADME, organism-based. The arrangement: dose 1 mg/kg.
Data set [13] in a line: AUC (0 to infinity) in rat at 1 mg/kg. Format: ADME, organism-based. The arrangement: time infinity, dose 1 mg/kg. The conditions noted are these: plasma.
Data set [14] can be described thus: Drug metabolism in rat liver microsomes assessed as phase-2 metabolism measured by glucuronidation level at 5 uM in presence of UDPGA after 2 hrs at 37 degC. Format: ADME. Particulars: read-out: Drug metabolism. For orientation: Liver microsomes are vesicles of endoplasmic reticulum, rich in cytochrome P450 enzymes.
Data set [15] can be described thus: Permeability of the compound assessed as mass balance at 20 uM incubated at 20 degC for 5 hrs in 2% DMSO containing PBS buffer solution by PAMPA assay. Format: ADME. The conditions noted are these: read-out: Activity.
Data set [16] in a line: Terminal half life in rat at 1 mg/kg. Format: ADME, organism-based. The arrangement: dose 1 mg/kg. The conditions noted are these: in vivo, read-out: beta t1/2 (converted).
Data set [17] in a line: Volume of distribution at steady state in rat at 1 mg/kg. The arrangement: dose 1 mg/kg. The conditions noted are these: in vivo, read-out: Vdss. Format: ADME, organism-based.
Data set [18] in a line: Drug metabolism in human liver microsomes assessed as phase-2 metabolism measured by glucuronidation level at 5 uM in presence of UDPGA after 2 hrs at 37 degC. Format: ADME. The conditions noted are these: read-out: Drug metabolism.
Data set [19] is described as follows: Drug metabolism in rat liver microsomes at 5 uM in presence of NADPH after 30 mins at 37 degC. Format: ADME. The conditions noted are these: read-out: Drug metabolism.
Data set [20] can be described thus: Drug metabolism in human liver microsomes at 5 uM in presence of NADPH after 30 mins at 37 degC. Format: ADME. The conditions noted are these: read-out: Drug metabolism.
Data set [21] can be described thus: Oral bioavailability in rat at 10 mg/kg. Format: ADME, organism-based. The conditions noted are these: in vivo.

One may read the IC50 as the concentration that gives 50% inhibition. What is called pKa is the pH at which an ionisable group is half protonated. A low value points to a stronger acid or weaker base. For orientation: Cmax means the peak of the concentration-time curve. By logD is commonly meant the decadic logarithm of the distribution of all forms, ionised or not, between an organic phase and buffer at a given pH. As usually defined, the Papp is the rate of passage across a membrane or cell layer, normalised by area and donor concentration. By clearance is commonly meant the volume of plasma or blood freed of the substance per unit of time. What is called MRT is a mean duration of stay, worked out from the concentration-time curve. What is called AUC(0-inf) is the area under the concentration-time curve extrapolated to infinity. Higher therefore signals high exposure. By bioavailability is commonly meant the share of a dose that reaches the circulation, judged against a reference dose that is usually intravenous.

On to `CCN(Cc1cc(C(F)(F)F)ccc1-c1cc(CC(=O)O)c2ccncn12)C(=O)C1CC1`, for which the T1/2 in data set [1] came to 1.5 h.

Consider `CCN(Cc1cc(C(F)(F)F)ccc1-c1cc(CC(=O)O)cc2cnn(C)c12)C(=O)C1CC1`, for which the IC50 in data set [2] worked out at 48 nM. The compound further gave a T1/2 in data set [1] of 1.4 h.

As for `CCN(Cc1cc(C(F)(F)F)ccc1-n1cc(CC(=O)O)c2ccccc21)C(=O)C1CC1`, in data set [3], the IC50 was 84 nM.

In the case of `CCN(Cc1cc(C(F)(F)F)ccc1-c1nc(CC(=O)O)c2ccccn12)C(=O)C1CC1`, the solubility thermodynamic at 24 h in data set [4] is over 1000 µg/mL. The pKa in data set [5] is 3; in [6], 4.8. Further, in data set [2], the IC50 was determined as 82 nM. The same compound came in with a T1/2 in data set [1] of 0.7 h.

The compound `CCN(Cc1cc(C(F)(F)F)ccc1-n1cc(CC(=O)O)c2cccnc21)C(=O)C1CC1` came in with a Cmax in data set [7] of 926 ng/mL. The same compound had a logD in data set [8] of 0.5. Besides, the Papp at 5 h, 20 µM in [9] amounted to 1.1 ×10⁻⁶ cm/s. Further, the solubility thermodynamic at 24 h in data set [4] and in data set [11] was over 1000 µg/mL throughout. The figures for the pKa in [5] and in data set [6] were 2.4 and 4.2, respectively. The same compound returned a clearance in data set [10] of 19 mL/min/kg. In data set [12], this compound registered an MRT of 3.4 h. This compound displayed an AUC(0-inf) in data set [13] of 885 ng·h/mL. Moreover, the metabolised at 2 h, 5 µM in data set [14] was 6%. The recovery at 5 h, 20 µM in [15] was 80%. For the same compound, in data set [16], the half-life is 5.3 h. Moreover, the Vd in [17] was found to be 3.9 L/kg.

In the case of `CCN(Cc1cc(C(F)(F)F)ccc1-c1cc(CC(=O)O)cn2ccnc12)C(=O)C1CC1`, in data set [2], the IC50 came out at 159 nM. Also, the T1/2 in data set [1] is 0.7 h.

Regarding `CCN(Cc1cc(C(F)(F)F)ccc1-c1cc(CC(=O)O)cn2cnnc12)C(=O)C1CC1`, the IC50 in data set [2] was found to be 398 nM.

`CCN(Cc1cc(C(F)(F)F)ccc1-c1cc(CC(=O)O)c2cccn2c1)C(=O)C1CC1`: the IC50 in [2] was 262 nM.

On to `CCN(Cc1cc(C(F)(F)F)ccc1-c1nn(CC(=O)O)c2ccccc12)C(=O)C1CC1`, for which the peak level in [7] (Cmax) was 550 ng/mL. Besides, in data set [8], the logD is 0.8. Moreover, the Papp at 5 h, 20 µM in data set [9] worked out at 0.18 ×10⁻⁶ cm/s. For the same compound, the metabolised at 2 h, 5 µM in [18] is 35%; in data set [14] it was 12%. In addition, the results for the solubility thermodynamic at 24 h in [4] and in [11] were under 1 µg/mL and over 1000 µg/mL, respectively. Besides, the pKa in data set [5] was 2.8. Further, the metabolised at 0.5 h, 5 µM in data set [19] and in data set [20] was under 5% throughout. Further, the T1/2 in data set [1] was 1.6 h. The same compound displayed a clearance in data set [10] of 38 mL/min/kg. This compound returned an MRT in [12] of 2.4 h. In addition, the IC50 in data set [3] turned out to be 47 nM. In [13], this compound showed an area under the curve AUC(0-inf) of 440 ng·h/mL. Also, in data set [15], the recovery at 5 h, 20 µM amounted to 81%. Moreover, the half-life in [16] is 2.4 h. Also, the Vd in [17] came out at 5.4 L/kg.

Turning to `CCN(Cc1cc(C(F)(F)F)ccc1-c1cc(CC(=O)O)cn2nccc12)C(=O)C1CC1`, the IC50 in data set [2] was 247 nM.

For the compound `CCN(Cc1cc(C(F)(F)F)ccc1-c1cc(CC(=O)O)c2ccnn2c1)C(=O)C1CC1`, the IC50 in data set [2] was 123 nM. In data set [1], the T1/2 amounted to 0.2 h.

The compound `CCN(Cc1cc(C(F)(F)F)ccc1-c1cn(CC(=O)O)c2ccccc12)C(=O)C1CC1` yielded a Cmax in data set [7] of 571 ng/mL. This compound also came in with a logD in data set [8] of 1.4. The Papp at 5 h, 20 µM in data set [9] came out at 0.6 ×10⁻⁶ cm/s. In addition, the solubility thermodynamic at 24 h was under 1 µg/mL in data set [4] and over 1000 µg/mL in data set [11]. The metabolised at 0.5 h, 5 µM in [19] is under 5%. The T1/2 in data set [1] came out at 4 h. This compound also returned a clearance in data set [10] of 30 mL/min/kg. In data set [21], the bioavailability turned out to be 46%. The same compound returned an MRT in [12] of 1.6 h. Besides, the AUC(0-inf) in [13] came to 559 ng·h/mL. The metabolised at 2 h, 5 µM in data set [14] was determined as 32%. The recovery at 5 h, 20 µM in data set [15] is 71%. Moreover, the half-life in [16] is 1.5 h. Further, the Vd in [17] worked out at 2.9 L/kg.

Turning to `CCN(Cc1cc(C(F)(F)F)ccc1-c1cc(CC(=O)O)n2cccnc12)C(=O)C1CC1`, the solubility thermodynamic at 24 h in data set [4] and in data set [11] was over 1000 µg/mL throughout. Besides, the pKa is 3.7 in data set [5] and 1.7 in data set [6]. For the same compound, the IC50 in data set [3] was found to be 1.4 nM.

On to `CCN(Cc1cc(C(F)(F)F)ccc1-c1cn(CC(=O)O)c2ccncc12)C(=O)C1CC1`, for which the pKa in [5] was found to be 2.4; in data set [6], 7.8. Moreover, in data set [2], the IC50 was 43 nM. The compound further returned a T1/2 in data set [1] of 1.1 h.

Consider `CCN(Cc1cc(C(F)(F)F)ccc1-c1cc(CC(=O)O)cc2cn(C)nc12)C(=O)C1CC1`, for which the IC50 in data set [2] worked out at 48 nM. This compound registered a T1/2 in data set [1] of 1.2 h.

`CCN(Cc1cc(C(F)(F)F)ccc1-c1cn(CC(=O)O)c2cccnc12)C(=O)C1CC1`: the solubility thermodynamic at 24 h in data set [4] and in data set [11] was over 1000 µg/mL in each case. Also, the pKa in data set [5] was 2.5; in data set [6], 5.6.

`CCN(Cc1cc(C(F)(F)F)ccc1-c1cc(CC(=O)O)ccc1OC)C(=O)C1CC1` showed a Cmax in data set [7] of 1530 ng/mL. In data set [8], the logD was 0.6. Besides, in data set [9], the Papp at 5 h, 20 µM was 1.5 ×10⁻⁶ cm/s. The metabolised at 2 h, 5 µM in data set [18] is 28%; in [14], 21%. Also, in [2], the IC50 was 16 nM. Also, the clearance in data set [10] was 6.9 mL/min/kg. In data set [12], the MRT worked out at 4.7 h. In data set [13], this compound gave an AUC(0-inf) of 2420 ng·h/mL. In addition, in data set [15], the recovery at 5 h, 20 µM was 91%. The half-life in data set [16] was 5.9 h. The Vd in data set [17] was found to be 2 L/kg. The metabolised at 0.5 h, 5 µM in [20] is under 5%.
